Read-outs that look alike come from different tables or passages of the source.
Assays:
[1] = molecular target: T1, human non-pancreatic secretory PLA2 (type IIa) (Homo sapiens, UniProt P14555); test: Mixed micelle colorimetric assay for inhibition of human non-pancreatic sPLA2 (type IIa); type: biochemical; conditions: thio-PC/Triton X-100 mixed micelles, 37° C., Dixon plot (FIG. 3); read-out: IC50 against human non-pancreatic sPLA2 (type IIa)
T1 sequence (P14555 21-144): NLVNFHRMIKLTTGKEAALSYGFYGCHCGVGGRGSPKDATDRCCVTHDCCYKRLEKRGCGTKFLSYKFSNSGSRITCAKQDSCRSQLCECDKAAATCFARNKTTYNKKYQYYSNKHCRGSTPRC
Procedure: Reagents were obtained commercially in the sPhospholipase A2 Assay Kit, Cayman Chemical Company MI USA. Buffer (25 mM Tris HCl at pH 7.5, 1 mg/mL BSA, 0.3 mM Triton X-100, 100 mM KCl, 10 mM CaCl2), substrate (diheptanoyl thio-phosphatidyl choline), DTNB (5,5′-dithiobis(2-nitrobenzoic acid)) and a 96 well plate were all provided. Recombinant hIIa-PLA2 was provided by the Garvan Institute for Medical Research. […] Standard inhibitor solutions were prepared from anhydrous DMSO. All samples were run in triplicate including the blank and control samples.
[…] Thio-PC is processed by s-PLA2 and the free thiol produced is detected with DTNB (Ellman's Reagent). 5-Thio-2-nitrobenzoic acid is detected spectrophotometrically at […]. IC50's were determined by assaying inhibitors at a range of concentrations.

rat uterus [2] = test: Spontaneous contractions of rat uterus in organ bath (naturally-cycling rats)
Source text: (§1) To examine the potential benefit of PLA2 inhibitors in treating dysmenorrhoea in women, an in vitro model was developed which measured the force and frequency of contractions in a rat uterus. When removed from the rat and placed in an organ bath, the uterus contracts rhythmically. The force of contraction varies with the profile of sex hormones produced by the animal at the different stages of the sexual (oestrus) cycle. Levels of oestrogen and progesterone fluctuate throughout the sexual cycle. […]
(§2) In this model the uterine contractions are stimulated by the synthesis and release of eicosanoids and other contractile mediators by cells in the uterus, which then act on the muscle cells in the uterine wall to cause contraction. Compounds 5 and 9 were tested for their ability to inhibit spontaneous and oxytocin-induced contractions of a female rat uterus (described ahead). Addition of oxytocin, a hormone synthesised in the pituitary gland, gives uterine contractions of greater force and frequency by increasing the release of eicosanoids (Wassdal, I et al, 1998, Acta Physiol Scand, 164: 47-52, Burns, P D et al, 1998, Domest Anim Endocrinol, 15: 477-487, Asselin, E et al, 1997, Endocrinology, 138: 4798-4805). There is a relationship between the stage of the sexual cycle and the sensitivity of the uterus to oxytocin (Engstrom, T et al., 1999, J. Endocrinol., 161: 403-411). It has been shown that the contractions can be reduced if the synthesis of the mediators is blocked.
(§3) Uteri were removed from rats, divided into 4 segments and placed in organ baths to measure force and frequency of contraction. Spontaneous contractions were measured, then each segment of uterus was challenged with oxytocin (1 μI.U. to 100 mI.U.). The force and frequency of contraction was measured after oxytocin addition and a concentration response curve generated. The drugs—either an sPLA2 inhibitor or a NSAID—was then added to the bath and allowed to equilibrate for 30 minutes. The drugs were tested at concentrations ranging from 1 nM to 10 μM with one piece of tissue per concentration. The tissue was then challenged with increasing concentrations of oxytocin to generate a second concentration-response curve. The EC50 concentrations in control and drug-treated tissue were determined from the curves and compared.

rat uterus [3] = test: Oxytocin-induced contractions of rat uterus in organ bath (naturally-cycling rats)
Source text: as §1, §2, §3

rat uterus [4] = test: Spontaneous uterine work in uteri of ovarectomised, sex hormone-treated rats; conditions: for spontaneous uterine work: uteri removed 4 days after hormone treatment of ovarectomised rats, n=4-5
Source text: (§4) To examine the potential benefit of PLA2 inhibitors in treating dysmenorrhoea in women, an in vitro model was developed which measured the force and frequency of contractions in a rat uterus. When removed from the rat and placed in an organ bath, the uterus contracts rhythmically. The force of contraction varies with the profile of sex hormones produced by the animal at the different stages of the sexual (oestrus) cycle. Levels of oestrogen and progesterone fluctuate throughout the sexual cycle. To ensure a reproducible model, rats were ovarectomised and oestrogen, progesterone, a combination of oestrogen and progesterone and an inert control substance were given to mimic different stages of the sexual cycle.
(§5) In a separate series of experiments, rats were ovarectomised then treated with sex hormones to ensure animals are at the same stage of the oestrus cycle. Uteri were removed from the rats 4 days after hormone treatment, allowed to equilibrate in the organ baths for 30 minutes, then the intensity of uterine contractions and frequency of the spontaneous contractions was measured. In the oestrogen-primed uteri, spontaneous uterine work was […], in progesterone-primed rats, 10±0.9 mNs^−1, in oestrogen plus progesterone-primed uteri, 9±1.5 mNs^−1 and in control uteri 7.9±0.6 mNs^−1.
(§6) sPLA2 inhibitor 5 and ketoprofen were tested in the model to determine their ability to moderate both spontaneous contractions and contractile activity stimulated by oxytocin.

rat uterus [5] = test: Oxytocin-challenged uterine work in uteri of ovarectomised, sex hormone-treated rats; design: maximum decrease in the intensity of the oxytocin response: dose or concentration left out as unconfirmed; conditions: for inhibition at 0.1 µM: 100 nM; for change of oxytocin EC50 values: 1 nM-1 μM; for maximum uterine work with oxytocin: hormone-treated group challenged with 100 mU oxytocin
Source text: as §4, §5
Challenging with oxytocin caused an increase in uterine work over baseline spontaneous activity.
as §6

rat uterus [6] = test: Rat uterine contractions, spontaneous and oxytocin-induced together; conditions: for EC50: Rattus norvegicus; for drug concentrations suppressing spontaneous and oxytocin-induced uterine contractions: rat uterine model
Source text: as §4
as §2, with “Compounds 5 and 9 were tested for their ability to inhibit spontaneous and oxytocin-induced contractions of a female rat uterus (described ahead).” left out
as §3

[7] = system: monocyte leukotriene release; conditions: Cha, 1996; cited from earlier work
[8] = molecular target: T2, type V human non-pancreatic sPLA2 (Homo sapiens, UniProt P39877); conditions: Chen, Y. et al, 1998; cited from earlier work
T2 sequence (P39877 21-138): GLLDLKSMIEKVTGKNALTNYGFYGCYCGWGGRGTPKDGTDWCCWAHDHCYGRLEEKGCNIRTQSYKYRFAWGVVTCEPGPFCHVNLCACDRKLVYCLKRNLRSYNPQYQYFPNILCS

[9] = Table 1, rat uterus model, read-out: ED50 Spontaneous contractions
[10] = Table 1, rat uterus model, read-out: ED50 Oxytocin-induced contractions
[11] = Rattus norvegicus, Oestrogen (O) group, mean ± SEM, read-out: maximum inhibition of uterine work, oxytocin challenge
[12] = Rattus norvegicus, Vehicle group, mean ± SEM, read-out: maximum inhibition of uterine work, oxytocin challenge
[13] = range over spontaneous and oxytocin-induced contractions, read-out: EC50, inhibition of uterine contractions
[14] = Table 1, rat uterus model, NSAIDs

In the case of O=C(O)CC[C@@H](CSc1ccc(Cc2ccccc2)cc1)NC(=O)CCCCCCc1ccccc1 [Compound 5, (S)-5-(4-Benzyl-phenylsulfanyl)-4-(7-phenyl-heptanoylamino)-pentanoic acid], the IC50 [1] is reported as 42 nM, the EC50 (rat uterus [2]; Rattus norvegicus, FIG. 4, n=3, read-out: EC50, spontaneous activity of rat uteri in the organ bath) is reported as 30 nM and the EC50 (rat uterus [2]; [9]) is reported as 30 nM. For the same molecule, the EC50 (rat uterus [3]; Rattus norvegicus, FIG. 5, n=3, read-out: ED50, uterine contractions induced by oxytocin) was 20 nM, the EC50 (rat uterus [3]; [10]) was 20 nM and the “effect on spontaneous activity” value (rat uterus [4]; oestrogen and progesterone treated uteri, 1 nM-1 μM, n=5) was “did not inhibit”. For the same molecule, the “effect on spontaneous activity” value (rat uterus [4]; oestrogen treated uteri, 10 nM, n=4, P<0.05) was “inhibited”, the “effect on spontaneous activity” value (rat uterus [4]; oil vehicle (control) rats, 1 nM, n=4, P<0.05) was “inhibited spontaneous activity” and the “effect on spontaneous activity” value (rat uterus [4]; progesterone treated uteri, 1 nM-1 μM, n=5) was “did not significantly inhibit”. The inhibition at 0.001 µM (rat uterus [5]; Rattus norvegicus, O + P group, 1 nM, mean ± SEM, read-out: maximum inhibition of uterine work, oxytocin challenge) was 62%, the inhibition at 0.1 µM (rat uterus [5]; [11]) was 34% and the inhibition at 0.01 µM (rat uterus [5]; Rattus norvegicus, Progesterone (P) group, 10 nM, mean ± SEM, read-out: maximum inhibition of uterine work, oxytocin challenge) was 65%. For the same molecule, the inhibition at 0.1 µM (rat uterus [5]; [12]) was 40%, the “change of oxytocin EC50 values” (rat uterus [5]; oestrogen and progesterone treated uteri, n=5) was “did not inhibit” and the “maximum decrease in the intensity of the oxytocin response” value (rat uterus [5]; oestrogen treated uteri) was 34%±5%. For the same molecule, the “change of oxytocin EC50 values” (rat uterus [5]; oestrogen treated uteri, n=4) was “did not alter”, the “potency in inhibiting uterine contractions compared to NSAIDs” value (rat uterus [6]) was 1,000 fold and the EC50 (rat uterus [6]; [13]) was 1 to 20 nM. The melting point was 89 to 91.5 °C and the IC50 [7] was 350 nM.

Cc1c(CC(N)=O)c2cc(OCCCP(=O)(O)O)ccc2n1Cc1ccccc1 [Compound 9, [3-(1-Benzyl-3-carbamoylmethyl-2-methyl-1H-indol-5-yloxy)-propyl]-phosphonic acid] gave an EC50 (rat uterus [2]; [9]) of 80 nM, an EC50 (rat uterus [3]; [10]) of 200 nM and an EC50 (rat uterus [6]; FIG. 6, n=2, read-out: EC50, spontaneous contraction and oxytocin induced contractions in rat uterus) of about 100 nM. The EC50 (rat uterus [6]; [13]) was 80 to 200 nM and the IC50 [8] was 36 nM.

For Cc1c(Nc2ncccc2C(=O)O)cccc1C(F)(F)F [Flunixin, flunixin meglumine, reference compound], the “effect on spontaneous rat uterine contractions” value (rat uterus [2]; FIG. 7, 1 μM and 5 μM, n=3) was “reduced spontaneous contractions”, the EC50 (rat uterus [2]; Table 1, rat uterus model, NSAIDs, read-out: ED50 Spontaneous contractions) was 1000 nM and the “effect on oxytocin-induced contractions” value (rat uterus [3]; FIG. 7, n=3) was “no effect”. For the same molecule, the EC50 (rat uterus [3]; Table 1, rat uterus model, NSAIDs, read-out: ED50 Oxytocin-induced contractions) was 1000 nM and the “drug concentrations suppressing spontaneous and oxytocin-induced uterine contractions” value (rat uterus [6]) was “micromolar to millimolar”.

With CC(C(=O)O)c1cccc(C(=O)c2ccccc2)c1 (stereo not drawn) [Ketoprofen, ketoprofen, reference compound] the “maximum inhibition of uterine work, oxytocin challenge” value (rat uterus [5]; O + P group, up to 10 μM) was “no inhibitory effect”, the inhibition at 0.1 µM (rat uterus [5]; [11]) was 29% and the inhibition at 0.1 µM (rat uterus [5]; Rattus norvegicus, Progesterone (P) group, mean ± SEM, read-out: maximum inhibition of uterine work, oxytocin challenge) was 84%. For the same molecule, the inhibition at 0.1 µM (rat uterus [5]; [12]) was 79%.

For CN1C(C(=O)Nc2ccccn2)=C(O)c2ccccc2S1(=O)=O [Piroxicam, piroxicam, reference compound], the “ED50 Spontaneous contractions” value (rat uterus [2]; [14]) was “No effect”, the “ED50 Oxytocin-induced contractions” value (rat uterus [3]; [14]) was “No Effect” and the “drug concentrations suppressing spontaneous and oxytocin-induced uterine contractions” value (rat uterus [6]) was “micromolar to millimolar”.

With COc1ccc2cc([C@H](C)C(=O)O)ccc2c1 [naproxen, reference compound] the “drug concentrations suppressing spontaneous and oxytocin-induced uterine contractions” value (rat uterus [6]) was “micromolar to millimolar”.

For CC(=O)[C@H]1CC[C@H]2[C@@H]3CCC4=CC(=O)CC[C@]4(C)[C@H]3CC[C@]12C [progesterone], the spontaneous uterine work (rat uterus [4]) was 10±0.9 mNs^−1 and the “maximum uterine work with oxytocin” value (rat uterus [5]) was 0.9 mNs^−1.

In the case of oestrogen, the spontaneous uterine work (rat uterus [4]) is reported as 7.2±1.4 mNs^−1 and the “maximum uterine work with oxytocin” value (rat uterus [5]) is reported as 15.7 mNs^−1.
